Test results published in PubChem BioAssay (NCI).
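Dose response: 5 concentrations. Exposure: 48 h. Format: 96-well plates. Endpoint: linear interpolation; highest concentration if not reached. At the TGI there is no net growth.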

Key:
Assay in all cases: NCI-60 cell line screen, 48 h
[1] = tested on: SK-MEL-28 melanoma
[2] = tested on: SNB-75 CNS
[3] = tested on: MCF7 breast
[4] = tested on: K-562 leukemia
[5] = tested on: NCI/ADR-RES ovarian
[6] = tested on: MDA-MB-231 breast
[7] = tested on: SN12C renal
[8] = tested on: HL-60(TB) leukemia
[9] = tested on: A498 renal
[10] = tested on: HOP-62 NSCLC
[11] = tested on: TK-10 renal
[12] = tested on: MDA-N
[13] = tested on: COLO 205 colon
[14] = tested on: OVCAR-8 ovarian
[15] = tested on: UO-31 renal
[16] = tested on: BT-549 breast
[17] = tested on: HT29 colon
[18] = tested on: SF-295 CNS
[19] = tested on: SK-MEL-5 melanoma
[20] = tested on: NCI-H460 lung
[21] = tested on: MALME-3M melanoma
[22] = tested on: OVCAR-3 ovarian
[23] = tested on: HCC-2998 colon
[24] = tested on: A549 NSCLC
[25] = tested on: HS 578T breast
[26] = tested on: UACC-257 melanoma
[27] = tested on: ACHN renal
[28] = tested on: LOX IMVI melanoma
[29] = tested on: U251 CNS
[30] = tested on: IGROV1 ovarian
[31] = tested on: CCRF-CEM leukemia
[32] = tested on: RPMI-8226 leukemia
[33] = tested on: NCI-H226 lung
[34] = tested on: MDA-MB-435
[35] = tested on: OVCAR-5 ovarian
[36] = tested on: SF-539 CNS
[37] = tested on: NCI-H23 lung
[38] = tested on: SNB-19 CNS
[39] = tested on: SW-620 colon
[40] = tested on: CAKI-1 renal
[41] = tested on: NCI-H522 lung
[42] = tested on: PC-3 prostate
[43] = tested on: KM12 colon
[44] = tested on: HCT-15 colon
[45] = tested on: DU-145 prostate
[46] = tested on: SR leukemia
[47] = tested on: 786-0 renal
[48] = tested on: EKVX NSCLC
[49] = tested on: MOLT-4 leukemia
[50] = tested on: OVCAR-4 ovarian
[51] = tested on: RXF 393 renal
[52] = tested on: HOP-92 NSCLC
[53] = tested on: SF-268 CNS

C=CCc1cccc2cc(C(=O)Nc3nc(C45CC6CC(CC(C6)C4)C5)cs3)c(=O)oc12
TGI [1]: > 100 µM | TGI [2]: > 100 µM | TGI [3]: > 100 µM | TGI [4]: > 100 µM | TGI [5]: > 100 µM | TGI [6]: 62.1 µM | TGI [7]: > 100 µM | TGI [8]: > 100 µM | TGI [9]: 70.6 µM | TGI [10]: 36.3 µM | TGI [11]: 89.8 µM | TGI [12]: > 100 µM | TGI [13]: 58.9 µM | TGI [14]: > 100 µM | TGI [15]: 25.2 µM | TGI [16]: > 100 µM | TGI [17]: > 100 µM | TGI [18]: 31.3 µM | TGI [19]: > 100 µM | TGI [20]: > 100 µM | TGI [21]: > 100 µM | TGI [22]: 67.6 µM | TGI [23]: > 100 µM | TGI [24]: > 100 µM | TGI [25]: 47.9 µM | TGI [26]: > 100 µM | TGI [27]: 33.9 µM | TGI [28]: 42.8 µM | TGI [29]: 41.9 µM | TGI [30]: 94.5 µM | TGI [31]: > 100 µM | TGI [32]: > 100 µM | TGI [33]: > 100 µM | TGI [34]: > 100 µM | TGI [35]: > 100 µM | TGI [36]: > 100 µM | TGI [37]: 59.2 µM | TGI [38]: 64.2 µM | TGI [39]: > 100 µM | TGI [40]: 41.4 µM | TGI [41]: > 100 µM | TGI [42]: > 100 µM | TGI [43]: > 100 µM | TGI [44]: > 100 µM | TGI [45]: > 100 µM | TGI [46]: > 100 µM | TGI [47]: 54.6 µM | TGI [48]: > 100 µM | TGI [49]: > 100 µM | TGI [50]: 51.5 µM | TGI [51]: 22.5 µM | TGI [52]: 43.1 µM | TGI [53]: 55 µM
